Tested on: MDA-MB-231 cells
Experiment: Effect of Taxol on HFFU-induced Ca2+ elevations (cell response index, CRI), live-cell calcium fluorescence imaging
Format: cell-based, human
Conditions: for normalized CRI (cell response index): 24 h treatment, HFFU stimulation, n=10, normalized to 0 nM = 1.0
Method: In order to perform live-cell fluorescence imaging of target cells stimulated by HFFU, a HFFU stimulation system was added to an inverted epifluorescence microscope (Olympus 1X70). In order to generate the highly focused ultrasound beam for single cell stimulation, a 200-MHz press-focused LiNbO3 transducer (fc: 200 MHz and bandwidth: 29%) was used. The transducer was constructed with conventional transducer fabrication procedures (Lam et al., 2013). The focal length of the transducer was 1.3 mm and the f-number (F#) was 1.6. The measured beam width of the highly focused ultrasound beam was 17 μm, which was close to the predicted value of 12 μm (=focal length×wavelength) and approximately the size of a breast cancer cell. In order to generate the 200-MHz ultrasound beam, 200-MHz sinusoidal bursts from a function generator (Stanford Research Systems, Sunnyvale, Calif.) fed into a 50-dB power amplifier (525LA, ENI, USA) were used to drive the transducer. The resultant peak-to-peak (Vpp) voltages of the bursts were adjusted to 4, 8, 16, and 32 V. The duty factor was tuned to 1%, and the pulse repetition frequency (PRF) was 1 kHz.
Live-cell fluorescence imaging was carried out on the epifluorescence microscope to monitor the cytoplasmic Ca^2+ elevations elicited by HFFU in individual MDA-MB-231, MCF-7, SKBR3, and BT-474 cells labeled with Fluo-4 AM. Light from a mercury lamp was delivered to the cells for excitation after passing through an electronic shutter, an excitation bandpass filter (488±20 nm), a dichroic mirror (cut-off wavelength: 500 nm), and a 20×objective. Fluorescence emitted from the cells was then collected by the same objective and recorded using a high-sensitivity CCD camera (ORCA-Flash2.8, Hamamatsu, Japan) after passing through an emission bandpass filter (530±20 nm).
Fluo-4 AM was used for live-cell calcium fluorescence imaging. 10^5 cells were plated on 35 mm Petri dishes and incubated in the complete medium at 37° C. for 36 h before […] Fluo-4 AM solution, diluted with the external buffer solution, was added to the dishes. After the cells were incubated at room temperature for 30 min, the cells were thoroughly washed with external buffer solution and then time-lapse fluorescence imaging was initiated after the target cells were positioned at the beam focus. Fluorescence images were acquired at 1 Hz for t=300 s (exposure time: 300 ms), as the HFFU was switched on and off at t=50 s and t=200 s, respectively.
The program was written to obtain the mean normalized maximum calcium elevation value and a cell responding ratio from segmented images of target cells, semi-automatically. A cell responding ratio=the number of cells responding to HFFU/the number of total cells subjected to HFFU. More specifically, after fluorescence images of cells acquired at different time-points (0-300 s, step: 1 s) were averaged, the target cell receiving HFFU in the averaged image was selected and segmented by Otsu's method (Otsu, 1979), followed by the calculation of mean fluorescence intensities in the segmented regions of each image obtained at the indicated time-points. Temporal changes of the mean fluorescence in the target cell were then analyzed to determine whether calcium elevations were elicited by HFFU in the cell. The calcium elevation was here measured as the increase in the fluorescence intensity. […]

SMILES: CC(=O)O[C@H]1C(=O)[C@@]2(C)[C@H]([C@H](OC(=O)c3ccccc3)[C@]3(O)C[C@H](OC(=O)[C@H](O)[C@@H](NC(=O)c4ccccc4)c4ccccc4)C(C)=C1C3(C)C)[C@]1(OC(C)=O)CO[C@@H]1C[C@@H]2O [Taxol]
- reduction of the CRI relative to the untreated cells (1 nM Taxol): −50%
- normalized CRI (cell response index) (1 nM Taxol): 0.52
- normalized CRI (cell response index) (10 nM Taxol): 0.29
- CRI remaining (reduced to) (100 nM Taxol): 0%
- normalized CRI (cell response index) (100 nM Taxol): 0
